The test system of data set [1] is SEQ ID NO. 12 (GLUT4). Kind of data set: Euglycemic insulin clamp: GLUT4 in plasma membrane-enriched (PM) fraction of vastus lateralis biopsies, quantitative immunoblot. In kind it is in vivo, human. How it is done: (§1) Muscle biopsies: Percutaneous needle biopsies of vastus lateralis were performed using a 5 mm Bergstrom-Stille needle under suction after an overnight fast and two hours of quiet recumbency as previously described (6). A 50-100 mg specimen was quickly blotted and the entire sample was frozen in liquid nitrogen for later analysis.
(§2) Fractionation of muscle microsamples: We have made minor modifications of our previously described techniques (10). Briefly, 50 mg muscle is removed from the −80° C. freezer and slowly thawed on ice. The muscle is homogenized in 1.0 ml Buffer A (250 mM sucrose, 20 mM HEPES, pH 7.4) with 5 μL protease cocktail (Cocktail Kit Pierce #78410) added. Initial homogenization is 30 seconds with a Pellet Pestle Motor (Kontes). The homogenate is passed through a BD Falcon 100 μm Cell Strainer and after adding 100 μL Buffer B (3M KCl, 250 roM sodium pyrophosphate), is spun at 227,000×g for 30 minutes. The pellet is resuspended in 1.0 mL of Buffer A with protease cocktail using the Pellet Pestle Motor again for 30 seconds. This sample is then spun at 12,000×g for 20 minutes. […]
(§3) Immunoblot technique: Immunoblotting was performed essentially as previously described (11). […] Image analysis was performed on scanned film digital files using Quantity One version 4.5.2 software from Bio-Rad (Hercules, Calif.). […]

Data set [2] concerns SEQ ID NO. 12 (GLUT4) translocation in L6 myoblasts. The experiment in a line: Insulin-stimulated translocation of GLUT4 to PM fraction in L6 myoblasts and its inhibition by PI3-K inhibitor. Format: cell-based, rat. The settings on record: L6 cells, 10 ng/mL insulin. How it is done: (§4) Fractionation of L6 muscle cells: L6 cells were obtained from ATCC and cultured in D.MEM medium with 10% fetal bovine serum with subculturing every three to five days. For the studies described below, cells were grown to near confluence in 100 mm dishes. Cells were harvested in 1 mL homogenization Buffer A containing 5 μL protease inhibitors using a rubber policeman. The remainder of the technique is the same as muscle microsamples. The yield of protein averaged 199±14 μg for PM and 419±22 μg for LDM. Immunoblot technique: Immunoblotting was performed essentially as previously described (11). In general, 10-20 μg protein from muscle homogenate or fractions was separated on a 10% polyacrylamide gel using the Laemmli system (12), transferred to a nitrocellulose membrane, subjected to blocking with 2.5% non-fat dry milk in phosphate-buffered saline, incubated with a validated dilution of one of the anti-GLUT antibodies above including 1.25% milk, and developed with the enhanced chemiluminescence reagent and X-ray film. Image analysis was performed on scanned film digital files using Quantity One version 4.5.2 software from Bio-Rad (Hercules, Calif.). The specificity of the antibodies employed for GLUT1 SEQ ID NO. […] After harvesting and fractionating the cells, samples from the fractions were subjected to immunoblotting and digital images were quantified by image analysis software. […]

A short description of data set [3]: Euglycemic insulin clamp: plasma insulin concentration and glucose infusion rate.
Protocol: Euglycemic insulin clamp studies: Insulin infusion studies were performed essentially as previously described (8; 9) except no isotope or somatostatin were used in this study. Mter an overnight fast, subjects were maintained in quiet recumbency for two hours to minimize the effects of muscular activity on protein subcellular localization. After a baseline muscle biopsy, a constant insulin infusion was performed at 40 mU/m2/min for three hours. A second muscle biopsy was performed on the contralateral side in the last 10 minutes of the insulin infusion period.
The next data set relates to SEQ ID NO. 10 (GLUT1). The experiment in a line: Euglycemic insulin clamp: GLUT1 in plasma membrane-enriched (PM) fraction of vastus lateralis biopsies, immunoblot. In kind it is in vivo, human. How it is done: as §1, §2, §3
The next data set has as its system SEQ ID NO. 16 (GLUT12). The experiment in a line: Euglycemic insulin clamp: GLUT12 in plasma membrane-enriched (PM) fraction of vastus lateralis biopsies, quantitative immunoblot. Format: in vivo, human. How it is done: as §1
Fractionation of muscle microsamples: We have made minor modifications of our previously described techniques (10). Briefly, 50 mg muscle is removed from the −80° C. freezer and slowly thawed on ice. The muscle is homogenized in 1.0 ml Buffer A (250 mM sucrose, 20 mM HEPES, pH 7.4) with 5 μL protease cocktail (Cocktail Kit Pierce #78410) added. Initial homogenization is 30 seconds with a Pellet Pestle Motor (Kontes). The homogenate is passed through a BD Falcon 100 μm Cell Strainer and after adding 100 μL Buffer B (3M KCl, 250 roM sodium pyrophosphate), is spun at 227,000×g for 30 minutes. The pellet is resuspended in 1.0 mL of Buffer A with protease cocktail using the Pellet Pestle Motor again for 30 seconds. This sample is then spun at 12,000×g for 20 minutes. The pellet is resuspended in 200 μl, Boston Bioproducts Triton Lysis Buffer with Protease Inhibitor (BP-117) using the Pellet Pestle Motor. This sample is designated PM, the plasma membrane-enriched fraction. The supernate is removed and spun at 227,000×g for 30 minutes. The resulting pellet is also resuspended in 200 μL Boston. Bioproducts Triton Lysis Buffer, and is designated LDM, the low density microsomes fraction. PM protein content averaged 139±7 μg and LDM contained 265±8 μg protein. In studies performed on human control muscle sample fractions, the PM fraction contained 80% of the immunological signal for the plasma membrane marker Na/K+ ATPase α-I (05-369 from Millipore). LDM contained 67% of the golgi marker mannosidase II (AB3712 from Chemicon).
as §3

Data set [4] deals with SEQ ID NO. 16 (GLUT12) translocation in L6 myoblasts. Kind of data set: Insulin-stimulated translocation of GLUT12 to PM fraction in L6 myoblasts and its inhibition by PI3-K inhibitor. The settings on record: L6 cells, 10 ng/mL insulin. In kind it is cell-based, rat. How it is done: as §4
Data set [5] deals with SEQ ID NO. 12 (GLUT4). To be noted: cited from earlier work.

Where “and” joins values, the source holds several entries; their conditions need not be identical. Identical values can stand only once. Entries after “also recorded” stand apart in the source; their conditions may differ.

Regarding “insulin: insulin given as constant euglycemic infusion at 40 mU/m2/min, or 10 ng/mL on L6 cells”, the “GLUT4 distribution in the plasma membrane-enriched (PM) fractions” value in the data set on SEQ ID NO. 12 (GLUT4) [1] (end of 3 h insulin infusion at 40 mU/m2/min, six normal volunteers, baseline 13%) is given as 42%. Moreover, the “Change of GLUT4 content of the PM fraction in response to insulin infusion” value in the data set on SEQ ID NO. 12 (GLUT4) [1] (insulin infusion vs baseline, each subject) is on record as “more than doubled; also recorded: at least doubled”. In addition, in data set [2], the “Translocation of GLUT4 to the PM fraction by insulin” value is reported as “caused translocation; also recorded: moved from the fraction to the PM fraction”. This substance showed a Plasma insulin concentration in data set [3] (infusion of insulin at 40 mU/m2/min, baseline 28±7 pmol/L) of 343 ± 21 pmol/L. The “Mean glucose infusion rate to maintain blood glucose of 85 mg/dL” value in data set [3] (steady state period of the insulin infusion) worked out at 8.87 mg/kg·min. For the same substance, the “Change of GLUT1 distribution/signal in LDM and PM fractions after insulin” value in the data set on SEQ ID NO. 10 (GLUT1) (insulin infusion vs baseline) was “did not change; also recorded: no change”. In addition, the “GLUT1 content in the PM fractions” value in the data set with SEQ ID NO. 10 (GLUT1) (post-insulin infusion, subjects 1-5, baseline 78±7%) is 79±9% and 79%. For the same substance, the “GLUT12 distribution in the plasma membrane-enriched (PM) fractions” value in the data set with SEQ ID NO. 16 (GLUT12) (end of 3 h insulin infusion at 40 mU/m2/min, six normal volunteers, baseline 17%) is given as 38%. Moreover, the “Change of GLUT12 content of the PM fraction in response to insulin infusion” value in the data set on SEQ ID NO. 16 (GLUT12) (insulin infusion vs baseline) is “more than doubled in four of the six subjects”. In addition, the “Minimum increase of GLUT12 content of the PM fraction” value in the data set with SEQ ID NO. 16 (GLUT12) (insulin infusion vs baseline, minimum response among six subjects) is ≥ 60%. For the same substance, the “Translocation of GLUT12 to the PM fraction by insulin” value in data set [4] is “translocated; also recorded: caused translocation; also recorded: moved from the fraction to the PM fraction”. Besides, in the data set with SEQ ID NO. 12 (GLUT4) [5] (after euglycemic insulin infusion, same infusion rate, literature ref 26), the “Increase in GLUT4 in the muscle plasma membrane fractions (Zierath)” value was 60%. Also, in the data set with SEQ ID NO. 12 (GLUT4) [5] (control subjects, literature ref 24), the “Increase in sarcolemma-associated GLUT4 by confocal quantitative immunohistochemistry (Kelley)” value was 85%. Also, the “Increase in GLUT4 in muscle plasma membrane-enriched fractions (Garvey)” value with SEQ ID NO. 12 (GLUT4) [5] (ten-fold higher insulin infusion, control subjects, literature ref 25) is reported as 2.8 fold.

Values taken from patent publication US8227210B2, “Positive control proteins for glucose transporter proteins and processes for the generation of such positive control proteins” (East Tennessee State University Research Foundation, priority 2008, dated 2012).
